Assay results taken from US12064453B2, “Biochemical and biomechanical conditioning for enhancing personalized mesenchymal stem cell therapies” (BOARD OF REGENTS, THE UNIVERSITY OF TEXAS SYSTEM, priority 2017, dated 2024).

Tests used:
[1] = system: Human mesenchymal stem cells (hMSCs); assay: Long term conditioning of hMSCs with biochemical factors and mechanical load, immunostaining; assay type: cell-based; settings: seven days; for paxillin levels: with and without load (0.1 Hz, 7.5% strain, 4 hours daily); for endothelial marker vWF: in combination with mechanical loading
Description: Human mesenchymal stem cells (hMSCs; Millipore) were cultured in low glucose DMEM medium supplemented with 15% fetal bovine serum, L-glutamine, and penicillin/streptomycin. Following trypsinization, cells were seeded on the membranes at 4,000 cells per cm^2 before mechanical loading. Immunocytochemical staining. Cells were fixed in 4% paraformaldehyde in PBS for 10 min followed by washing and permeabilization with 0.1% Triton X-100 PBS for 5 min. Next, samples were blocked with 1% BSA 5% FBS in PBS for 40 min. After washing, cells were incubated with primary antibodies (Table 1) overnight at 4° C. The next day, samples were washed in 1% BSA in PBS and was incubated with secondary antibodies and DAPI staining for 2 hours in a light protected environment. For actin staining, an alternative step was used in which samples were treated with Alexa 594 conjugated phalloidin for 30 min. Cells were washed thoroughly before they were imaged. For standard fluorescent microscopy, Zeiss Observerl was used. […] Long term conditioning of hMSCs using biochemical factors. For long term loading, cells were exposed to media containing small biomolecules (Table 3). They were loaded for 4 hours every day for 7 days under sine and brachial waveform at 0.1 Hz and 7.5% maximum strain and compared against those in static culture. Media containing the biomolecules were replaced on day 3 and day 5, with the exception of 5-Aza containing media. Due to the cytotoxic nature of 5-Aza, it was replaced with normal media on day 1. On day 6, media was replaced with 0.5% FBS containing media post loading. Following long term loading on day 7, the condition media was collected and further assays were performed on the cells. To examine the ability of long term application of mechanical loading in conditioning MSCs, the cells were treated with treatments known to cause differentiation into vascular/cardiovascular phenotypes including 5-azacitidine (5-aza), Dexamethasone with insulin (Dex+Ins), PDGF-BB, hydrocortisone (Hydrocort), EGF, VEGF-A, and TGF-β1.

[2] = system: Smad2/3; assay: Smad transcription factor activity, multi-strain mechanical loading; assay type: cell-based, human; settings: MSCs; 0.1 Hz, 7.5% strain, 24 hours, co-treatment
Description: Transcription factor activity assay.
To perform a high throughput assay of the dependence of magnitude of mechanical strain on the activation of Smad2/3, the heights of the individual pistons were adjusted to apply mechanical strains over a range of 0 to 17.5% strain, in increments of 2.5% strain (FIGS. 2B-D). […] The regulation of differentiation-related pathways in MSCs was examined by loading the cells for 24 hours under multi-strain conditions at 0.1 Hz and performing immunostaining. A maximal increase in nuclear to cytoplasmic Yap/Taz was found at 7.5% strain and maximal nuclear localization of Smad2/3 at 10-12.5% strain (FIG. 2F). In addition, there was a maximal increase in α-SMA expression in the range of strains from 7.5-12.5% strain (FIG. 2G). At 10-15% strain, there was a maximal increase in polymerized actin and paxillin (FIG. 2G). The mechanical loading was repeated at 7.5% strain with 0.1 Hz frequency using both sine and brachial waveforms and then performed western blotting. With brachial waveform loading, increases in PECAM-1 expression were found and as well as a reduction in α-SMA expression and an increase in p-Smad 2/3 (FIGS. 2H, I). Overall, these studies support maximal activation of Smad signaling in MSCs with 0.1 Hz of loading at 7.5% strain, with an increase in endothelial-like phenotype with brachial loading.

[3] = system: Human mesenchymal stem cells (hMSCs); assay: Oil Red O or Alizarin Red staining for adipogenic and osteogenic differentiation; assay type: cell-based
Description: Long term conditioning of hMSCs using biochemical factors. For long term loading, cells were exposed to media containing small biomolecules (Table 3). They were loaded for 4 hours every day for 7 days under sine and brachial waveform at 0.1 Hz and 7.5% maximum strain and compared against those in static culture. Media containing the biomolecules were replaced on day 3 and day 5, with the exception of 5-Aza containing media. Due to the cytotoxic nature of 5-Aza, it was replaced with normal media on day 1. On day 6, media was replaced with 0.5% FBS containing media post loading. Following long term loading on day 7, the condition media was collected and further assays were performed on the cells. […] To test for adipogenic and osteogenic differentiation, the cells were also stained using Oil Red O or Alizarin Red dye.

[4] = system: FOXO; settings: MSCs; VEGF at 2 Hz frequency of loading (5% maximal strain) or at 1 Hz; 10 ng/ml; 8 hours
Description: (§1) Transcription factor activity assay. The cells were transduced with luminescent reporter vectors for target transcription factors. Briefly, for each target transcription factor, freshly passaged hMSCs were treated with luciferase reporter expressing lentiviruses (Qiagen). For the drug screening assay, hMSCs were treated with biomolecules in the kinase inhibitor library (Millipore Calbiochem) 1 hour prior to loading. After mechanical loading, the cells were lysed and the relative luminescent signal was measured using the luciferase assay kit (Promega) with FlexStation-3 plate reader (Molecular Devices). For each plate, average from three individual readings was reported.
(§2) A major limitation of previous studies in mechanobiology is the limited ability to investigate a variety of conditions simultaneously. This gap in capability leads to an incomplete exploration of the range of mechanical conditions and greatly reduces the ability to examine synergy between applied mechanical forces and biochemical signals. Mesenchymal stem cells were transduced with lentiviruses expressing luciferase reporter constructs for transcription factors including FOXO, TCF/LEF, Smad2/3 and SRE and selected these to obtain a stable reporter cell line. […]

[5] = system: TCF/LEF; settings: MSCs; loading at 0.1 Hz with VEGF treatment; 10 ng/ml; 8 hours
Description: as §1, §2

[6] = system: Human mesenchymal stem cells (hMSCs); settings: long term conditioning
Description: Fluorescence Activated Cell Sorting (FACS). After long term loading, the cells were then detached from the loading plate using accutase (Sigma) and was labeled with fluorescent antibodies according the BD Bioscience FACS staining kit (BD 562725) for cardiovascular phenotypes such as endothelial, smooth muscle, and pericyte phenotypes. […] Fortessa of UT Austin Core Facility was used to measure population fluorescent signals.
To address these issues, a combinatorial set of mechanical loading and biochemical or pharmacological treatments were applied to MSCs and the phenotype assessed using multiple markers using FACS (FIG. 5A).

Compound | PECAM-1 ([1]; in combination with mechanical load) | paxillin levels [1] | endothelial marker vWF [1] | nuclear localization of Yap/Taz ([1]; with mechanical loading, in comparison to other treatment groups) | Smad transcription factor activity [2] | Osteogenesis (Alizarin Red) ([3]; static conditions) | Osteogenesis (Alizarin Red) ([3]; with mechanical loading) | FOXO transcription factor activity [4] | TCF/LEF transcription factor activity [5] | endothelial lineage defined by the FACS protocol [6]
Nc1ncn([C@@H]2O[C@H](CO)[C@@H](O)[C@H]2O)c(=O)n1 [5-aza, 5-Azacytidine] | increased | increased paxillin levels | – | – | – | – | – | – | – | –
EGF [growth factor, Sigma-Aldrich E9644, 10 ng/mL] | – | increased paxillin levels | to a lesser extent | – | – | – | – | – | – | –
TGF-β1 | – | not increased | – | markedly reduced | optimal synergistic activation | observed | did not occur | – | – | –
VEGF | – | increased paxillin levels | to a lesser extent | – | – | – | – | reduction in FOXO activity | synergistically activated | did not increase
